Reference: US5344780A, “Method for determining indole compounds associated with boar taint in pork as well as a sample container to be used in the method” (priority 1990, dated 1994)
Values joined by “and” are separate entries in the source; they are usually repeats but may differ in a detail not shown here. Equal values may be shown once.

Assay: HPLC-analysis of extracted lard with heating (Example 1; also reproducibility test)
Parameters: species or system pig
Procedure: The present Example illustrates the extraction on the entire sample of lard and the determination of indole and skatole by HPLC.
A sample of lard of 5 g is taken subcutaneously from the occipital region of a carcass. The sample is placed in a container and heated at 80° C. for 10 minutes in microwave oven in order to melt the fat. An amount of 5 ml of methanol is then added to the sample which is shaken, whereupon the sample is extracted for 10 minutes. Subsequently, the sample is filtered to remove the fat and connective tissue and analyzed by HPLC under the following conditions:
HPLC-apparatus: Merck HPLC with fluorescence detector and autosampler,
Eluant: water:methanol (20:80) (volume:volume)
Fluorescence detector: excitation wavelength=285 nm, emission wavelength=340 nm
Column: Lichrocart 250-4, Lichrospher 100 RP18, 5 micron, reverse phase
Injection volume: 20 microliter,
Detection limit: 5 ppb (0,005 ppm) in solution […]
The samples were such analyzed 10 times.

Cc1c[nH]c2ccccc12 [Skatole, skatole]
ppb skatole at HPLC-analysis, overall average (Table 2, 4 samples, n = 40): 48.47 ppb | ppb skatole at HPLC-analysis, highest (Table 2, samples 1-4): 50.00 ppb and 50.93 ppb and 52.80 ppb and 51.87 ppb | ppb skatole at HPLC-analysis, lowest (Table 2, samples 1-4): 44.13 ppb and 43.87 ppb and 49.07 ppb | ppb skatole at HPLC-analysis, average per sample (Table 2, samples 1-4, 10 analyses each): 47.61 ppb and 47.63 ppb and 50.67 ppb and 47.96 ppb | ppb skatole at HPLC-analysis, overall average (Table 3, 3 samples, n = 30): 71.38 ppb | ppb skatole at HPLC-analysis (Table 3, sample 1, analyses 1-10): 72.00 ppb and 69.33 ppb and 74.67 ppb and 77.33 ppb | ppb skatole at HPLC-analysis (Table 3, sample 2, analyses 1-10): 74.67 ppb and 69.33 ppb and 66.67 ppb and 72.00 ppb | ppb skatole at HPLC-analysis (Table 3, sample 3, analyses 1-10): 72.00 ppb and 69.33 ppb and 66.67 ppb | ppb skatole at HPLC-analysis, highest (Table 3, samples 1-3): 77.33 ppb and 74.67 ppb and 72.00 ppb | ppb skatole at HPLC-analysis, lowest (Table 3, samples 1-3): 69.33 ppb and 66.67 ppb | ppb skatole at HPLC-analysis, average per sample (Table 3, samples 1-3, 10 analyses each): 73.60 ppb and 70.13 ppb and 70.40 ppb
